Assay results from publication PMC10079954, “Rational design of phase separating peptides based on phase separating protein sequence of p53” (Scientific Reports, 2023).

Experiments:
[1] = biological target: C-terminal peptide of p53; experiment: Affinity of DPp53C1 to the C-terminal peptide of p53; format: binding
p53 tetramer = experiment: Recruitment (enrichment index) of p53 tetramer into designed peptide droplets; parameters: species or system human; conditions: droplet interior regions, surface not included; no salt, pH 7.0
Source text: (§1) We prepared p53 tetramer, dimer, and monomer mutants, as described previously[8],[37],[50]. For the p53 tetramer, a thermostable and cysteine-modified human p53 mutant (C124A, C135V, C141V, W146Y, C182S, V203A, R209P, C229Y, H233Y, Y234F, N235K, Y236F, T253V, N268D, C275A, C277A, and K292C) was used[50]. The dimer and monomer mutants of p53 corresponded to L344A and L344P of the tetramer sequence, respectively[8],[37]. These p53 mutants were expressed with a glutathione S-transferase (GST) tag in E. coli and purified after cleavage of the GST tag, as described previously[50],[51]. The oligomeric state of p53 mutants was confirmed using a gel filtration column (Superdex 200; GE Healthcare). p53 mutants were labeled with Atto488 (ATTO-TEC) or Alexa488 (Thermo Fisher) using maleimide chemistry and then purified using a heparin column (GE Healthcare). We prepared Alexa488-labeled FUS-MBP as described previously[37],[39].
(§2) Recruitment evaluations were performed following the method described in our previous studies[37],[41]. Solutions containing 0.9–1.8 mM designed peptides, 0.1 µM Alexa488-labeled p53 mutants or Alexa488, 25 mM HEPES, 0.5 mM EDTA, and 1 mM DTT at pH 7.0 were used. The solutions were then incubated at 22 °C for five minutes. The aforementioned microscope was used with HILO illumination. To prevent photo-bleaching of the fluorescent samples, we used a laser power of 0.15 mW. The images were acquired at 22 °C. Using the ImageJ software, we calculated the EI values of the individual droplets as follows:2 EI=Idroplet/Isolution, where Idroplet and Isolution represent the average fluorescence intensities of the individual droplets and solutions near the droplets with background substitution, respectively.

[2] = Single-molecule fluorescence tracking (HILO) of labeled molecules in their droplets; format: physicochemical; conditions: Alexa488-labeled peptide 10–100 pM in 0.9 mM non-labeled peptide droplets; 25 mM HEPES, 0.5 mM EDTA, 45 mM NaCl, 150 mg/mL dextran, pH 7.0; linear fit of MSD (4D slope)
Procedure: We quantitatively characterized the liquid droplet properties of the four designed peptides and compared them with those of p53. We measured the fusion of the designed peptide droplets in the solution used for p53 droplets (Supplementary Fig. S4). In the presence of 45 mM NaCl and 150 mg/mL dextran, the fusion of droplets for the four designed peptides was observed within 0.2 s, which was much faster than that for p53 (3.7 min)[8]. This gap in the fusion period implies different intrinsic dynamic properties. We measured the movement of Alexa488-labeled peptides within non-labeled peptide droplets using single-molecule fluorescence microscopy with a highly inclined and laminated optical sheet (HILO) illumination[37],[41] (Fig. 3A). […]
Single-molecule measurements were performed following the method described in our previous studies[37],[41]. An inverted fluorescence microscope (IX-73; Olympus) with a total internal reflection fluorescence unit (IX3RFAEVAW; Olympus) was used[52],[53]. […] The fluorescence collected via the objective lens was detected using an EM-CCD camera (iXon Ultra 888, Andor). […] Images were recorded at intervals of 15–154 ms after reducing the number of observable molecules in the droplets by photobleaching within one minute. […]

[3] = test system: maltose binding protein-fused FUS (FUS-MBP); experiment: Recruitment (enrichment index) of FUS-MBP into designed peptide droplets; conditions: 1 mM DPp53N-GSGS-D7, 100 nM Alexa488-labeled protein, 1 mM DTT, pH 7.0
Procedure: as §2, with “Solutions containing 0.9–1.8 mM designed peptides, 0.1 µM Alexa488-labeled p53 mutants or Alexa488, 25 mM HEPES, 0.5 mM EDTA, and 1 mM DTT at pH 7.0 were used.” left out
Fig. S10 p53 monomer is localized inside droplets of DPp53N-GSGS-D7, whereas FUS-MBP is localized in its droplet surfaces. Fluorescence images of Alexa488-labeled p53 monomer mutant (L344P) and FUS-MBP in droplet solution of non-labeled DPp53N-GSGS-D7. The solution containing 103 mM HEPES and 1 mM DTT, 100 nM Alexa488 labeled proteins, and 1 mM DPp53N-GSGS-D7 at pH 7.0 was used.
Fig. S13 Design and experimental verification of artificial PS peptides from PS protein FUS. […] (B) DIC and fluorescence images of the solution containing 4 mM FUS designed peptide and 120 mM HEPES at pH 7.0. […] (C) Fluorescence images of Alexa488-labeled FUS-MBP in non-labeled FUS-designed-peptide droplet solution. […]

[4] = test system: p53 monomer (L344P) mutant; experiment: Recruitment (enrichment index) of p53 monomer into designed peptide droplets; parameters: species or system human; conditions: 0.9–1.8 mM designed peptide, 0.1 µM Alexa488-labeled p53, 25 mM HEPES, 0.5 mM EDTA, 1 mM DTT, pH 7.0, 22 °C; ± standard error; SEM
Source text: as §1, §2

| Kd [1] | Average diffusion coefficient (D) in own droplets [2] | Average EI of FUS-MBP, fold smaller than that of p53 monomer [3] | Sequence | Decrease of average EI of p53 tetramer relative to p53 monomer (p53 tetramer) | Enrichment index (EI) of p53 monomer (L344P) mutant in peptide droplets [4] |
| --- | --- | --- | --- | --- | --- |
| 10 µM |  |  | DDDASQEDDD [DPp53C1] |  |  |
|  | 0.26 ± 0.01 μm^2/s | 2.2 fold | RRRVVQRRRRGSGSDDDDDDD [DPp53N-GSGS-D7] | 10.5 fold | 22.3 ± 0.7 |
